Experimental data as given in US20230270713A1, “Administration of Resiniferatoxin For Treatment of Bladder Pain or Bladder Cancer” (Sorrento Therapeutics, Inc., priority 2020, published 2023).
Values joined by “and” are separate entries in the source; they are usually repeats but may differ in a detail not shown here. Equal entries are not always repeated. Where two headings read alike, the source gives them in different places.

Assay: Pharmacokinetic/toxicokinetic profile of RTX after intravesical instillation in dogs
Assay type: in vivo, dog
Method: Local tolerance and the pharmacokinetic (PK), and toxicokinetic (TK) profile of RTX in dogs was determined after a single instillation of RTX into the bladder of dogs (n=6). The RTX formulations were prepared using aseptic techniques in a biological safety cabinet (BSC) by mixing the appropriate amount of diluent with the appropriate amount of RTX. Dosing formulation concentrations used were 1 and 10 mcg/mL.
Three male and three female dogs ranging in weight from 5.95 to 8.60 kg were used in the study. The dogs were assigned into Group 1 (receiving a dose of 1 mcg/mL RTX) or Group 2 (receiving a dose of 10 mcg/mL RTX) as shown in the Table 3 below.
RTX was administered via intravesical instillation into the urinary bladder. The animals were given a single dose of 25 or 250 mcg/dose in a total volume of 25 mL on Day 1 over a period of 1 hour (±5 minutes). RTX and diluent were administered to the dogs under general anesthesia via a Foley catheter placed into the bladder for 1 hour (±5 minutes).
Blood samples were collected from all animals on Day 1 pre-dose and at 0.5, 1, 2, 4, 6, 12, 24, 36, 48, 60, and 72 hours post-dose. The toxicokinetic (TK) parameters were determined for RTX, and if appropriate, the metabolites, from mean concentration-time data.
Cmax is the observed maximum plasma concentration from the start of dosing. Tmax is the time to reach the Cmax. AUC(0-T) is the area under the plasma concentration-time curve from time zero to the last measurable time point calculated by the linear trapezoidal rule.

[1] = female dogs 1004, 1006 individual, 250 mcg intravesical
[2] = female dogs, 250 mcg intravesical

## C=C(C)[C@]12C[C@@H](C)[C@@]34O[C@](Cc5ccccc5)(O[C@@H]1[C@@H]3C=C(COC(=O)Cc1ccc(O)c(OC)c1)C[C@]1(O)C(=O)C(C)=C[C@@H]41)O2 [RTX, resiniferatoxin]
Both sexes, dog, plasma, other: intravesical instillation, 25 mcg, Group 1 dogs, 25 mL at 1 mcg/mL (25 mcg/dose), 2 hours post-dosing, male and female dog, read-out: plasma concentrations for RTX
  concentration at 2 h: < 0.05 ng/mL
dogs, 250 mcg intravesical
  AUC(0-T) Ratio (Male/Female): 1.23
  Cmax Ratio (Male/Female): 1.28
  RTX exposure in males compared with females: similar
Female dog 1002, 25 mcg intravesical, 2 h
  Plasma concentration of RTX: BQL (*BQL—Below quantifiable limit (<50.0 pg/mL); adequate signal-to-noise enabled reporting value as estimate)
Female dog 1002, 25 mcg intravesical, 4 h
  Plasma concentration of RTX: BQL (*BQL—Below quantifiable limit (<50.0 pg/mL); adequate signal-to-noise enabled reporting value as estimate)
Female dog 1002, 25 mcg intravesical, 6 h
  Plasma concentration of RTX: BQL (*BQL—Below quantifiable limit (<50.0 pg/mL); adequate signal-to-noise enabled reporting value as estimate)
Female dog 1002, 25 mcg intravesical, 12 h
  Plasma concentration of RTX: BQL (*BQL—Below quantifiable limit (<50.0 pg/mL); adequate signal-to-noise enabled reporting value as estimate)
Female dog 1002, 25 mcg intravesical, 24 h
  Plasma concentration of RTX: BQL (*BQL—Below quantifiable limit (<50.0 pg/mL); adequate signal-to-noise enabled reporting value as estimate)
Female dog 1002, 25 mcg intravesical, 36 h
  Plasma concentration of RTX: BQL (*BQL—Below quantifiable limit (<50.0 pg/mL); adequate signal-to-noise enabled reporting value as estimate)
Female dog 1002, 25 mcg intravesical, 48 h
  Plasma concentration of RTX: BQL (*BQL—Below quantifiable limit (<50.0 pg/mL); adequate signal-to-noise enabled reporting value as estimate)
Female dog 1002, 25 mcg intravesical, 60 h
  Plasma concentration of RTX: BQL (*BQL—Below quantifiable limit (<50.0 pg/mL); adequate signal-to-noise enabled reporting value as estimate)
Female dog 1002, 25 mcg intravesical, 72 h
  Plasma concentration of RTX: BQL (*BQL—Below quantifiable limit (<50.0 pg/mL); adequate signal-to-noise enabled reporting value as estimate)
Female dog 1002, 25 mcg intravesical, Predose
  Plasma concentration of RTX: BQL (*BQL—Below quantifiable limit (<50.0 pg/mL); adequate signal-to-noise enabled reporting value as estimate)
[1]
  AUC(0-T): 0.441 ng·h/mL and 0.146 ng·h/mL
  AUC(0-T)/Dose: 1.76 pg·h/mL/µg and 0.584 pg·h/mL/µg
  Cmax: 0.388 ng/mL and 0.16 ng/mL
  Cmax/Dose: 1.55 pg/mL/µg and 0.640 pg/mL/µg
Female dogs 1004, 1006 individual, 250 mcg intravesical, 0.5 h
  Plasma concentration of RTX: 0.388 ng/mL and 0 ng/mL
Female dogs 1004, 1006 individual, 250 mcg intravesical, 1 h
  Plasma concentration of RTX: 0.16 ng/mL
Female dogs 1004, 1006 individual, 250 mcg intravesical, 2 h
  Plasma concentration of RTX: 0.0511 ng/mL
Female dogs 1004, 1006 individual, 250 mcg intravesical, 4 h
  Plasma concentration of RTX: 0 ng/mL
Female dogs 1004, 1006 individual, 250 mcg intravesical, 6 h
  Plasma concentration of RTX: 0 ng/mL
Female dogs 1004, 1006 individual, 250 mcg intravesical, 12 h
  Plasma concentration of RTX: 0 ng/mL
Female dogs 1004, 1006 individual, 250 mcg intravesical, 24 h
  Plasma concentration of RTX: 0 ng/mL
Female dogs 1004, 1006 individual, 250 mcg intravesical, 36 h
  Plasma concentration of RTX: 0 ng/mL
Female dogs 1004, 1006 individual, 250 mcg intravesical, 48 h
  Plasma concentration of RTX: 0 ng/mL
Female dogs 1004, 1006 individual, 250 mcg intravesical, 60 h
  Plasma concentration of RTX: 0 ng/mL
Female dogs 1004, 1006 individual, 250 mcg intravesical, 72 h
  Plasma concentration of RTX: 0 ng/mL
Female dogs 1004, 1006 individual, 250 mcg intravesical, Predose
  Plasma concentration of RTX: 0 ng/mL
[2]
  AUC(0-T)/Dose, Mean: 1.18 pg·h/mL/µg
  Cmax/Dose, Mean: 1.10 pg/mL/µg
Female dogs, 250 mcg intravesical, Predose
  Plasma concentration of RTX, Mean: 0 ng/mL
female, dog, plasma, 250 ug, female dogs 1004, 1006 individual, 250 mcg intravesical, read-out: Tmax
  Tmax: 30 min
female, dog, plasma, 250 ug, female dogs, 250 mcg intravesical, read-out: Tmax, Mean
  Tmax: 45 ± 21.2 min
female, dog, plasma, other: intravesical instillation into the urinary bladder, 250 mcg, female dogs 1004, 1006 individual, 250 mcg intravesical, 60 h, read-out: Plasma concentration of RTX
  concentration at 60 h: 0 ng/mL
female, dog, plasma, other: intravesical instillation into the urinary bladder, 250 mcg, female dogs 1004, 1006 individual, 250 mcg intravesical, 72 h, read-out: Plasma concentration of RTX
  concentration at 72 h: 0 ng/mL
female, dog, plasma, other: intravesical instillation into the urinary bladder, 250 mcg, female dogs, 250 mcg intravesical, 0.5 h, read-out: Plasma concentration of RTX, Mean
  concentration at 0.5 h: 0.194 ng/mL
female, dog, plasma, other: intravesical instillation into the urinary bladder, 250 mcg, female dogs, 250 mcg intravesical, 60 h, read-out: Plasma concentration of RTX, Mean
  concentration at 60 h: 0 ng/mL
female, dog, plasma, other: intravesical instillation into the urinary bladder, 250 mcg, female dogs, 250 mcg intravesical, 72 h, read-out: Plasma concentration of RTX, Mean
  concentration at 72 h: 0 ng/mL
female, dog, plasma, other: intravesical instillation, 250 ug, female dogs, 250 mcg intravesical, read-out: AUC(0-T), Mean
  AUC(0-t): 0.294 ± 0.209 ng·h/mL
female, dog, plasma, other: intravesical instillation, 250 ug, female dogs, 250 mcg intravesical, read-out: Cmax, Mean
  Cmax: 0.274 ± 0.161 ng/mL
female, dog, plasma, other: intravesical instillation, 250 ug, female dogs, 250 mcg intravesical, read-out: Tmax, Mean
  Tmax: 45 min
female, dog, plasma, other: intravesical instillation, 25 mcg, female dog 1002, 25 mcg intravesical, 0.5 h, read-out: Plasma concentration of RTX
  concentration at 0.5 h: 0.0392 ng/mL
female, dog, plasma, other: intravesical instillation, 25 mcg, female dog 1002, 25 mcg intravesical, 1 h, read-out: Plasma concentration of RTX
  concentration at 1 h: 0.0203 ng/mL
female, dog, plasma, other: intravesical instillation, 250 mcg, female dogs 1004, 1006 individual, 250 mcg intravesical, 1 h, read-out: Plasma concentration of RTX
  concentration at 1 h: 0.289 ng/mL
female, dog, plasma, other: intravesical instillation, 250 mcg, female dogs 1004, 1006 individual, 250 mcg intravesical, 2 h, read-out: Plasma concentration of RTX
  concentration at 2 h: 0.0602 ng/mL
female, dog, plasma, other: intravesical instillation, 250 mcg, female dogs 1004, 1006 individual, 250 mcg intravesical, 4 h, read-out: Plasma concentration of RTX
  concentration at 4 h: 0 ng/mL
female, dog, plasma, other: intravesical instillation, 250 mcg, female dogs 1004, 1006 individual, 250 mcg intravesical, 6 h, read-out: Plasma concentration of RTX
  concentration at 6 h: 0 ng/mL
female, dog, plasma, other: intravesical instillation, 250 mcg, female dogs 1004, 1006 individual, 250 mcg intravesical, 12 h, read-out: Plasma concentration of RTX
  concentration at 12 h: 0 ng/mL
female, dog, plasma, other: intravesical instillation, 250 mcg, female dogs 1004, 1006 individual, 250 mcg intravesical, 24 h, read-out: Plasma concentration of RTX
  concentration at 24 h: 0 ng/mL
female, dog, plasma, other: intravesical instillation, 250 mcg, female dogs 1004, 1006 individual, 250 mcg intravesical, 36 h, read-out: Plasma concentration of RTX
  concentration at 36 h: 0 ng/mL
female, dog, plasma, other: intravesical instillation, 250 mcg, female dogs 1004, 1006 individual, 250 mcg intravesical, 48 h, read-out: Plasma concentration of RTX
  concentration at 48 h: 0 ng/mL
female, dog, plasma, other: intravesical instillation, 250 mcg, female dogs, 250 mcg intravesical, 1 h, read-out: Plasma concentration of RTX, Mean
  concentration at 1 h: 0.225 ng/mL
female, dog, plasma, other: intravesical instillation, 250 mcg, female dogs, 250 mcg intravesical, 2 h, read-out: Plasma concentration of RTX, Mean
  concentration at 2 h: 0.0557 ng/mL
female, dog, plasma, other: intravesical instillation, 250 mcg, female dogs, 250 mcg intravesical, 4 h, read-out: Plasma concentration of RTX, Mean
  concentration at 4 h: 0 ng/mL
female, dog, plasma, other: intravesical instillation, 250 mcg, female dogs, 250 mcg intravesical, 6 h, read-out: Plasma concentration of RTX, Mean
  concentration at 6 h: 0 ng/mL
female, dog, plasma, other: intravesical instillation, 250 mcg, female dogs, 250 mcg intravesical, 12 h, read-out: Plasma concentration of RTX, Mean
  concentration at 12 h: 0 ng/mL
female, dog, plasma, other: intravesical instillation, 250 mcg, female dogs, 250 mcg intravesical, 24 h, read-out: Plasma concentration of RTX, Mean
  concentration at 24 h: 0 ng/mL
female, dog, plasma, other: intravesical instillation, 250 mcg, female dogs, 250 mcg intravesical, 36 h, read-out: Plasma concentration of RTX, Mean
  concentration at 36 h: 0 ng/mL
female, dog, plasma, other: intravesical instillation, 250 mcg, female dogs, 250 mcg intravesical, 48 h, read-out: Plasma concentration of RTX, Mean
  concentration at 48 h: 0 ng/mL
